Laboratory results published in the NIST ThermoML archive (doi:10.1016/j.jct.2017.03.011).
± gives the expanded uncertainty stated by the source.

Legend:
[1] = Molar enthalpy of transition or fusion; conditions: DSC

O=C1COC(=O)CO1 [1,4-dioxane-2,5-dione]
Normal melting temperature (Crystal 1, DTA): 83.00 ± 2 °C | Triple point temperature (Crystal 2, DSC): 316.55 ± 2.1 K | Molar enthalpy of transition or fusion ([1]; Crystal 1): 3.28 ± 0.335 kcal/mol | Molar enthalpy of transition or fusion ([1]; Crystal 2): 0.416 ± 0.0478 kcal/mol
